Reference: BindingDB's records for doi:10.1016/s0960-894x(98)00494-6 (University of Michigan, 1999)

Assay: Compound was evaluated for inhibition of Protease

| IC50 | Structure (SMILES) |
| --- | --- |
| 80 nM | C[C@H](NC(=O)[C@H](Cc1ccccc1)NC(=O)OCc1ccccc1)C(=O)[C@@H]1CO1 [[(S)-1-((S)-1-Methyl-2-(S)-oxiranyl-2-oxo-ethylcarbamoyl)-2-phenyl-ethyl]-carbamic acid benzyl ester] |
| 1000 nM | C[C@H](NC(=O)[C@H](Cc1ccccc1)NC(=O)OCc1ccccc1)C(=O)[C@H]1CO1 [[(S)-1-((S)-1-Methyl-2-(R)-oxiranyl-2-oxo-ethylcarbamoyl)-2-phenyl-ethyl]-carbamic acid benzyl ester] |
| > 1000 nM | O=C(N[C@@H](Cc1ccccc1)C(=O)N[C@@H](CCc1ccccc1)C(=O)[C@H]1CO1)OCc1ccccc1 [{(S)-1-[(S)-1-((R)-Oxiranecarbonyl)-3-phenyl-propylcarbamoyl]-2-phenyl-ethyl}-carbamic acid benzyl ester] |
| 10 nM | O=C(N[C@@H](Cc1ccccc1)C(=O)N[C@@H](CCc1ccccc1)C(=O)[C@@H]1CO1)OCc1ccccc1 [{(S)-1-[(S)-1-((S)-Oxiranecarbonyl)-3-phenyl-propylcarbamoyl]-2-phenyl-ethyl}-carbamic acid benzyl ester] |
